Experiments:
[1] = test system: OVCAR8-GFP-Luc cells; experiment: Intraperitoneal OVCAR8 xenograft in NSG mice (bioluminescence imaging, ascites, in vivo phagocytosis)
Procedure: Animal Experiments: All mouse studies were performed in accordance with the Guide for the Care and Use of Laboratory Animals from NIH, and a protocol (202000157) approved by the UMass Chan Medical School Institutional Animal Care and Use Committee (IACUC). Female NSG mice (n=3 per group), 6-7 weeks of age, were injected intraperitoneally with 4×10^6 OVCAR8/EmGFP-luc cells or OVCAR8-ΔGPAA1/EmGFP-luc cells. Tumors were analyzed using bioluminescence imaging beginning 7 days post-engraftment and continuing every 7 days until day 28. Mice were injected intraperitoneally with firefly D-luciferin at 140 mg/kg in PBS and images were acquired 10 min after luciferin injection using an IVIS Spectrum (Perkin Elmer). Total flux was quantified using Living Image 4.0 software (IVIS Imaging Systems).
For macrophage depletion experiments, 200 μl of clodronate liposomes (Liposoma) was administered intraperitoneally every 4 days for 16 days before tumor implantation, followed by injection of 100 μl of clodronate liposomes every 4 days. Depletion of […] was verified by flow cytometry analysis peritoneal lavage using an APC anti-mouse F4/80 antibody (BioLegend, Cat #123116, clone BM8, 1:50 dilution).
[…] Tumors were analyzed by in vivo bioluminescence imaging as described above.
In vivo Phagocytosis Assay: An in vivo phagocytosis assay was performed as described previously (Barkal et al., Nature 2019, 572(7769):392-396). Mice were implanted with 4×10^6 OVCAR8/EmGFP-luc cells as described above and 7 days later bestatin (100 mg/kg) was administered daily by intraperitoneal injection. After 10 days of bestatin treatment, peritoneal ascites was harvested. Single-cell suspensions of ascitic cells were blocked using TruStain FcX (anti-mouse CD16/32 antibody (BioLegend, Cat #101320) for 10 min at room temperature and then stained with an APC anti-mouse F4/80 antibody (BioLegend, Cat #123116, clone BM8, 1:50 dilution) for 30 min on ice in the dark. The percentage of cells undergoing phagocytosis was calculated as the percentage of F4/80+ EmGFP+ double-positive cells in the population.

[2] = test system: CD24 cell surface expression in SKOV3 cells; experiment: CD24 flow cytometry analysis in SKOV3 cells; format: cell-based, human; details: 3 days, bestatin 10 or 20 μM, tosedostat 5 or 10 μM, vs DMSO
Procedure: Flow Cytometry Analysis: For cell surface protein staining, 1×10^5-1×10^6 cells were first incubated with Fc receptor blocking solution, Human TruStain FcXTM (BioLegend, Cat #422301) for 10 minutes at room temperature. Cells were washed once in FACS buffer (1×PBS, 1.0% bovine serum albumin (BSA) (Sigma) and 0.2% sodium azide (Sigma), and then incubated with antibodies (given below) for 30 minutes at 4° C. in the dark. Cells were also stained with 7-AAD (Biolegend, Cat #420404) for dead cell exclusion, and flow cytometry analysis was performed using a Bio-Rad ZE5 Cell Analyzer. Following antibodies used in this study (all antibodies were used at 1:50 dilution unless otherwise noted): APC anti-human CD24 (BioLegend, Cat #311118, clone ML5), PE anti-human CD24 (eBioscience, Cat #12-0247-42, clone SN3), APC anti-human CD47 (BioLegend, Cat #323124, clone CC2C6), APC anti-human § 2-microglobulin (BioLegend, Cat #395711, clone […]), PE anti-human HLA-A2 (MHC-class I) (BioLegend, Cat #343305, clone BB7.2), APC anti-human CD11b (BioLegend, Cat #982604, clone ICRF44), APC anti-mouse F4/80 antibody (BioLegend, Cat #123116, clone BM8), APC-streptavidin (Thermo Fisher Scientific, Cat #SA1005, 1:100 dilution), PE anti-Calreticulin (Invitrogen, Catalog #MA5-15382, 1:200 dilution). […]

| SMILES | tumor growth (total flux, in vivo bioluminescence imaging) ([1]; NSG mice, IP OVCAR8-GFP-Luc, bestatin 100 mg/kg/d IP vs vehicle (FIG. 10C)) | GFP+F4/80+ double-positive cells in ascites (in vivo phagocytosis) ([1]; bestatin 100 mg/kg daily IP, 10 days, vs vehicle (FIG. 10E)) | ascites volume ([1]; bestatin 100 mg/kg/d IP, 10 days of treatment, vs vehicle (FIG. 10D)) | CD24 cell surface expression (MFI) [2] |
| --- | --- | --- | --- | --- |
| CC(C)C[C@H](NC(=O)[C@@H](O)[C@H](N)Cc1ccccc1)C(=O)O [bestatin] | significantly reduced | increase | significantly reduced |  |
| CC(C)C[C@@H](C(=O)N[C@H](C(=O)OC1CCCC1)c1ccccc1)[C@H](O)C(=O)NO [tosedostat] |  |  |  | reduced |

From patent publication US20260209777A1, “TARGETING GLYCOSYLPHOSPHATIDYLINOSITOL (GPI) PATHWAY PROTEINS TO TREAT OVARIAN CANCER” (UNIVERSITY OF MASSACHUSETTS, priority 2023, published 2026)
